Results as given in patent US20170079267A1, “SEX PHEROMONE COMPOSITION OF PEACH FRUIT MOTH AND ATTRACTANT COMPRISING THE SAME” (SHIN-ETSU CHEMICAL CO., LTD., priority 2011, published 2017).

Test system: antenna of a male adult of peach fruit moth
Assay: GC-EAD (electroantennographic detection) of the extract of peach fruit moth
Parameters: species or system Carposina sasakii
Details: GC-EAD of pheromone gland extract; male adult 3 to 5 days after eclosion
Description: An EAD chart of the extract of peach fruit moth (Carposina sasakii) is shown in FIG. 1A and a GC chart of the extract is shown in FIG. 1B. […] In FIG. 1B, the peaks for components (5) and (6) were at the detection limit or less so that they were not detected.
In this time zone, the pheromone gland was excised from a virgin female adult (2 to 3 days old) under a microscope and immersed in n-hexane for 30 minutes. Then the insect body tissues were removed from the extraction liquid by filtration to produce an extract of peach fruit moth.
A GC-EAD (Gas Chromatography-Electroantennographic Detection) chart of the above extract of peach fruit moth is shown in FIG. 1.
Structural analyses of dimethyl disulfide (DMDS) adducts was conducted for each of the unsaturated bond sites of the monoene components. Finally, it was found in comparison with the retention times and mass spectra of the corresponding synthesized products that the components (1) to (6) were docosane, tricosane, (Z)-7-tricosene, (Z)-5-pentacosene, (Z)-12-nonadecen-9-one and (Z)-7-heneicosen-11-one, respectively, and the mixing weight ratio thereof was 6:341:432:36:2:8 with respect to 100 of (Z)-13-eicosen-10-one. FIGS. 2 to 7 show the mass spectra of the components (1) to (6) in the extract of peach fruit moth, while FIGS. 8 to 13 show the mass spectra of the commercial products and synthesized compounds.

For `CCCCCC/C=C\CCC(=O)CCCCCCCCC` [(Z)-13-eicosen-10-one], the “potential response of the antenna of a male adult (EAD)” value was “showed a potential response”.
